Test results as given in US9902964B2, “Growth arrested cells useful for producing compounds” (priority 2014, dated 2018).

Legend:
Type in all cases: cell-based, Escherichia coli
[1] = system: HipA-arrested cells (MG1655/pHipA); test: β-Lactam susceptibility of HipA-arrested cells (optical density, lysis)
Experimental: Biological triplicates of MG1655/pHipA cells were inoculated into 30 ml of MOPS-M9 medium and grown at 37° C. until an OD600 of 0.5 was reached. aTc was added to reach 50 ng/ml, and the cultures were split into two 12-ml subcultures. At 2.5 h later, carbenicillin (100 μg/ml) was added to one subculture and optical densities were measured. For comparison of the levels of β-lactam tolerance of WT and ΔrelA cultures expressing HipA, biological triplicates of the WT/pHipA and ΔrelA/pHipA strains were inoculated into 5 ml of MOPS-M9 medium and grown at 37° C. HipA expression was induced with 50 ng/ml aTc when the OD600 reached ˜0.3. Ampicillin was added to reach a final concentration of 100 μg/ml 1.5 h later, and optical densities were monitored.

[2] = system: persister cells of MG1655; test: Antibiotic resistance of naturally occurring persister cells isolated by ofloxacin treatment (CFU count); conditions: chloramphenicol 30 μg/ml, ampicillin 100 μg/ml, 4 h at 37° C.; P=0.3, unpaired t test
Experimental: Persister cells were prepared in triplicate by ofloxacin treatment of stationary-phase cultures based on a previously described protocol (32). Overnight cultures of MG1655 cells grown in LB medium for 20 h were treated with ofloxacin for 3 h at 37° C., after which cells were pelleted, washed with fresh LB medium, pelleted again, and resuspended in antibiotic-free LB medium. After resuspension, chloramphenicol (30 μg/ml) and ampicillin (100 μg/ml) were added singly or in combination, and cells were incubated at 37° C. with shaking for 4 h. Samples were removed, pelleted once, washed with LB medium, resuspended, and serially diluted. A 10-μl volume of the serial dilutions was spot plated on an LB agar plate, which was incubated at 37° C. overnight. Colonies were counted the following day.

[3] = system: ppGpp concentration within HipA-arrested cells; test: ppGpp measurements performed with HPLC in HipA-arrested cells; conditions: chloramphenicol treatment, within 15 min
Excerpt: ppGpp and nucleotides were extracted from cells grown on agar-supported nylon filters, following a protocol inspired by the rapid-quenching and metabolite extraction approach described in reference 25. We adopted this technique to avoid perturbing ppGpp levels with lengthy cell harvesting and extraction procedures, as the enzymes that generate and degrade ppGpp are known to respond rapidly to external conditions (26). Briefly, cells grown in liquid medium to an optical density at 600 nm (OD600) of ˜0.1 were transferred to nylon filters and adhered to solid agar plates containing our modified MOPS-M9 medium. […] Concentrations of ppGpp and GTP were measured using anion-exchange chromatography and a Partisil 5 Sax Rac II column (catalog no. 422-227; Hichrom Limited), with a silica Nova-Pak guard column (catalog no. WAT046845; Whatman) per a protocol described previously (26) and modified for brevity. […] The column temperature was maintained at 50° C., and absorbance was monitored at 254 nm. […]
Cultures of MG1655/pHipA cells were inoculated into 40 ml of MOPS-M9 medium in 250-ml unbaffled Erlenmeyer flasks and incubated with shaking at 37° C. […] Samples were processed per a previously published protocol (27) using Picogreen (Invitrogen) for DNA quantification. […] Fluorescence was measured using a Spectromax M2 reader.

[4] = system: MG1655/pHipA cells; test: Measurement of DNA and RNA concentrations in HipA-arrested cells; conditions: 30 μg/ml chloramphenicol added 1 h after HipA induction
Experimental: Cultures of MG1655/pHipA cells were inoculated into 40 ml of MOPS-M9 medium in 250-ml unbaffled Erlenmeyer flasks and incubated with shaking at 37° C. When the OD600 reached ˜0.3, aTc was added to reach 50 ng/ml. After 1 h of HipA induction, a sample was removed for DNA or RNA extraction, the cultures were split into two 15-ml cultures, and 30 μg/ml chloramphenicol was added to one of the cultures. For comparison of DNA and RNA synthesis results in WT and ΔrelA strains expressing HipA, biological triplicates of the WT/pHipA and ΔrelA/pHipA strains were grown in MOPS-M9 medium at 37° C. to an OD600 of 0.2 to 0.4, at which point HipA expression was induced by addition of aTc to 50 ng/ml. Samples were processed per a previously published protocol (27) using Picogreen (Invitrogen) for DNA quantification. RNA was quantified by measurement of fluorescence using the Quant-It assay (catalog no. Q33140; Invitrogen) following the manufacturer's instructions. Fluorescence was measured using a Spectromax M2 reader.

## CC1(C)S[C@@H]2[C@H](NC(=O)[C@H](N)c3ccccc3)C(=O)N2[C@H]1C(=O)O [ampicillin]
[1]; ampicillin 100 μg/ml, ΔrelA/pHipA strain, FIG. 9D
  ampicillin resistance of ΔrelA strain expressing HipA: did not confer ampicillin resistance
[2]
  reduction in CFU of isolated persisters: 41%±13%

## CC1(C)S[C@@H]2[C@H](NC(=O)C(C(=O)O)c3ccccc3)C(=O)N2[C@H]1C(=O)O (stereo partly drawn) [carbenicillin]
[1]; carbenicillin 100 μg/ml, HipA induced with 50 ng/ml aTc, FIG. 9C
  lysis of HipA-arrested WT cells: did not induce lysis

## O=C(N[C@H](CO)[C@H](O)c1ccc([N+](=O)[O-])cc1)C(Cl)Cl [chloramphenicol]
[3]
  decrease of ppGpp concentration within HipA-arrested cells: 60% (±20%)
[4]; FIG. 9A
  inhibition of DNA synthesis in HipA-arrested cells: relieved inhibition
[4]; FIG. 9B
  inhibition of RNA synthesis in HipA-arrested cells: relieved inhibition
